Experimental data: PMC6254361, “The properties of Msh2–Msh6 ATP binding mutants suggest a signal amplification mechanism in DNA mismatch repair” (The Journal of Biological Chemistry, 2018)

Molecular target: T1, Msh2–Msh6 (Saccharomyces cerevisiae, UniProt P25847+Q03834, P25847:K694R)
T1 sequence (P25847 1-964 K694R): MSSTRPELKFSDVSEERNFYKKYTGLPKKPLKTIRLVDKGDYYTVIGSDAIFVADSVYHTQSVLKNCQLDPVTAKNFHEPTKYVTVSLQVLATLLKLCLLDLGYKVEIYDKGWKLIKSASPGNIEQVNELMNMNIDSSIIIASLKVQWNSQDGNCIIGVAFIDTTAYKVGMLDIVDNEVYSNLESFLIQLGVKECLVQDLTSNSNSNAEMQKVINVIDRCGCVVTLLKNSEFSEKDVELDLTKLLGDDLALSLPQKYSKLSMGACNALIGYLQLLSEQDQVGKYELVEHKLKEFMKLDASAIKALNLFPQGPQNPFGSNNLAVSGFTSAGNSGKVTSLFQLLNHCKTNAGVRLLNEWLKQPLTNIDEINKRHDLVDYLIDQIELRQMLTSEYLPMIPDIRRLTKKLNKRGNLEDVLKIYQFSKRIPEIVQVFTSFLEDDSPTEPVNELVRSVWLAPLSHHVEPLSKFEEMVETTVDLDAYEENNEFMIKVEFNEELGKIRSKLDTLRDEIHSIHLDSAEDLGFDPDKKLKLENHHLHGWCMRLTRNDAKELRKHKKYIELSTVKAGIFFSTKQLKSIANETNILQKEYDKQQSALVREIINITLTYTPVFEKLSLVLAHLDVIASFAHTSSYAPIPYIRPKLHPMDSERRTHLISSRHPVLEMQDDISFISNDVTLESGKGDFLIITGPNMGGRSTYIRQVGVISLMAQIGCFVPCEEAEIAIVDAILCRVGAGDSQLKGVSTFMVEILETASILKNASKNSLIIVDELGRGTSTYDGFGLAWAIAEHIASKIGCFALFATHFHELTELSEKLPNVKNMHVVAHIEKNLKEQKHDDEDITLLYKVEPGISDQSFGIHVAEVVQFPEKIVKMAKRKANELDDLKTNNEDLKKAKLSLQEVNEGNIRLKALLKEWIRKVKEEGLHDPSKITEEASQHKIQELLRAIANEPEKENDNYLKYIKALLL
T1 sequence (Q03834 1-1242): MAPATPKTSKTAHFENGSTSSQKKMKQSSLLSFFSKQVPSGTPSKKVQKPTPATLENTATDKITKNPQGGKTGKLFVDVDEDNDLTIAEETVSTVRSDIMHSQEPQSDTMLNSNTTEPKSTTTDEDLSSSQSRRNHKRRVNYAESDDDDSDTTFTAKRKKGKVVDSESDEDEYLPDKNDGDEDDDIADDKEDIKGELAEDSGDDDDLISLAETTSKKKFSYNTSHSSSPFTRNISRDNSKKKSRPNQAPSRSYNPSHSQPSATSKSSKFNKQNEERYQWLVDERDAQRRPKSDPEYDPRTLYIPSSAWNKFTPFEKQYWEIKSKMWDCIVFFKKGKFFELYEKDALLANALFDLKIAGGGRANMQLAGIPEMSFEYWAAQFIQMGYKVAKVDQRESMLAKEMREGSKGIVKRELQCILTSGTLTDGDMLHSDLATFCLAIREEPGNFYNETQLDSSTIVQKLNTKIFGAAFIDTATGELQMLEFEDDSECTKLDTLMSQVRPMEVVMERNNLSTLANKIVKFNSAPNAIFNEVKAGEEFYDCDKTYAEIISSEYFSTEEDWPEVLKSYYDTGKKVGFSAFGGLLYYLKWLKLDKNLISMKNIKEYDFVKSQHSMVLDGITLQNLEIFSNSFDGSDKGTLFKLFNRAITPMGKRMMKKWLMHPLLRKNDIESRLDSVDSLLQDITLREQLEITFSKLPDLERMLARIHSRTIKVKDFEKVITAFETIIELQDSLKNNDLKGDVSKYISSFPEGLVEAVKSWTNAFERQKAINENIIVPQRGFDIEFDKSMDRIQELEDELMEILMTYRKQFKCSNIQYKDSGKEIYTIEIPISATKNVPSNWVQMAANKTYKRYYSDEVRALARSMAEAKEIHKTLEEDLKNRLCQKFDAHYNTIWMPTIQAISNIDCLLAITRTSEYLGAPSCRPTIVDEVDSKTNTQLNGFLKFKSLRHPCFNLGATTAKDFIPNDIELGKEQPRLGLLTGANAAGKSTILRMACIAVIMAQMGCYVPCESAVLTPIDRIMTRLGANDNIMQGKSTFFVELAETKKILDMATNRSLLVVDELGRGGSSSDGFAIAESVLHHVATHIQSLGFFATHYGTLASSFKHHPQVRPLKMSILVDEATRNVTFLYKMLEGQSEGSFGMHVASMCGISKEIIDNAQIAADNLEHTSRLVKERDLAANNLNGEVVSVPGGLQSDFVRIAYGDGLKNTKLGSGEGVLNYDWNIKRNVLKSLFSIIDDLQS
Assay: UV cross-linking of [γ-32P]ATP, SDS-PAGE, phosphorimaging
Type: binding
Settings: labelled compound; no Mg2+, EDTA, pH 8, on ice; Msh2 site at 60 μM ATP, Msh6 site at 1 μM ATP

In the case of `Nc1ncnc2c1ncn2[C@@H]1O[C@H](COP(=O)(O)OP(=O)(O)OP(=O)(O)O)[C@@H](O)[C@H]1O` [ATP], the “relative ATP binding” value is reported as “Msh2(K694A)–Msh6 and Msh2(K694R)–Msh6 mutant complexes were defective for ATP binding to both”.
